Source: patent US10562900B2 (Shanghai Haihe Pharmaceutical Co., Ltd., priority 2014, dated 2020)

Assays:
[1] = target: FGFR2 (Homo sapiens (Human), UniProt P21802); assay: FGFR2 kinase activity at the molecular level (ELISA, Poly(Glu,Tyr) 4:1 substrate); type: biochemical; conditions: kinase domain recombinant protein, 5 μM ATP
Method: (§1) 100 μL/well of 2 mg/mL OPD developing solution (diluted with 0.1M citric acid-sodium citrate buffer containing 0.03% H2O2 (pH=5.4)), and reacted in dark for 1-10 minutes at 25° C.

[2] = target: FGFR1 (Homo sapiens (Human), UniProt P11362); assay: FGFR1 kinase activity at the molecular level (ELISA, Poly(Glu,Tyr) 4:1 substrate); type: biochemical; conditions: kinase domain recombinant protein, 5 μM ATP
FGFR1, sequence (P11362 478-767): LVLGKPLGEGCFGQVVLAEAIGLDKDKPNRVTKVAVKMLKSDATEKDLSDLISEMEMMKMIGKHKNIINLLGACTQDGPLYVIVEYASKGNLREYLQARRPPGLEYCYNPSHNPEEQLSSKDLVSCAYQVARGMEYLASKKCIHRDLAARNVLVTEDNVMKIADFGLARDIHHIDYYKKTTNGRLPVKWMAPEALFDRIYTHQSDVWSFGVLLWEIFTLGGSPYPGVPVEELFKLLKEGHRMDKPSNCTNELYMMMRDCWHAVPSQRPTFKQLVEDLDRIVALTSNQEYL
Method: as §1

FGFR2, sequence (P21802 481-770): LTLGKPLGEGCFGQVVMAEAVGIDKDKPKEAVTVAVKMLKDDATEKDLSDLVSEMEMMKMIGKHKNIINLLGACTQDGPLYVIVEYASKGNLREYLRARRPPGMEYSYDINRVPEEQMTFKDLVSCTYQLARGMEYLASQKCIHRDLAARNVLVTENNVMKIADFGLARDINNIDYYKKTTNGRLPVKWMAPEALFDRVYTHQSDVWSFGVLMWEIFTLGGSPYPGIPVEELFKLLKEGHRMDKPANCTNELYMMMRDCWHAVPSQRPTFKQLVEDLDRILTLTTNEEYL

| SMILES | IC50 [1] | IC50 [2] |
| --- | --- | --- |
| COc1cc(OC)c(Cl)c(-c2ccc3c(NC(=O)c4ccc(NCCN(C)C)cc4)n[nH]c3c2)c1Cl [Example 20, N-(6-(2,6-dichloro-3,5-dimethoxyphenyl)-1H-indazole-3-yl)-4-((2-(dimethylamino)ethyl)amino)benzamide] | < 100 nM | < 100 nM |
| COc1cc(OC)c(Cl)c(-c2ccc3c(NC(=O)c4ccc(N5C[C@@H](C)N[C@@H](C)C5)cn4)n[nH]c3c2)c1Cl [Example 21, N-(6-(2,6-dichloro-3,5-dimethoxyphenyl)-1H-indazole-3-yl)-5-((3R,5S)-3,5-dimethyl-1-yl)pyridine amide] | < 100 nM | < 100 nM |
| COc1cc(OC)c(Cl)c(-c2ccc3c(NC(=O)c4ccc(N5CCNC(C)(C)C5)cc4)n[nH]c3c2)c1Cl [Example 22, N-(6-(2,6-dichloro-3,5-dimethoxyphenyl)-1H-indazole-3-yl)-4-(3,3-dimethyl-1-yl)benzamide] | < 100 nM | < 100 nM |
| COc1cc(OC)c(Cl)c(-c2ccc3c(NC(=O)c4cccc(N5CCN(C)CC5)c4)n[nH]c3c2)c1Cl [Example 23, N-(6-(2,6-dichloro-3,5-dimethoxyphenyl)-1H-indazole-3-yl)-3-(4-methyl-1-yl)benzamide] | < 100 nM | < 100 nM |
| COc1cc(OC)c(Cl)c(-c2ccc3c(NC(=O)c4ccc(N5CCN(C(C)C)CC5)cc4)n[nH]c3c2)c1Cl [Example 24, N-(6-(2,6-dichloro-3,5-dimethoxyphenyl)-1H-indazole-3-yl)-4-(4-isopropyl-1-yl)benzamide] | < 100 nM | < 100 nM |
| COc1cc(OC)c(Cl)c(-c2ccc3c(NC(=O)c4ccc(N5CCNCC5)cc4)n[nH]c3c2)c1Cl [Example 25, N-(6-(2,6-dichloro-3,5-dimethoxyphenyl)-1H-indazole-3-yl)-4-(piperazine-1-yl)benzamide] | < 100 nM | < 100 nM |
| COc1cc(OC)c(Cl)c(-c2ccc3c(NC(=O)c4ccc(NCCCN(C)C)cc4)n[nH]c3c2)c1Cl [Example 26, N-(6-(2,6-dichloro-3,5-dimethoxyphenyl)-1H-indazole-3-yl)-4-((3(dimethylamino)propyl)amino)benzamide] | < 100 nM | < 100 nM |
| COc1cc(OC)c(Cl)c(-c2ccc3c(NC(=O)c4ccc(N5CCN(CCO)CC5)cc4)n[nH]c3c2)c1Cl [Example 27, N-(6-(2,6-dichloro-3,5-dimethoxyphenyl)-1H-indazole-3-yl)-4-(4-(2-hydroxyethyl)piperazinyl)benzamide] | < 100 nM | < 100 nM |
| COc1cc(OC)c(Cl)c(-c2ccc3c(NC(=O)c4ccc(NC(=O)CN(C)C)cc4)n[nH]c3c2)c1Cl [Example 28, N-(6-(2,6-dichloro-3,5-dimethoxyphenyl)-1H-indazole-3-yl)-4-(2-(dimethylamino)acetylamino)benzamide] | < 100 nM | < 100 nM |
| COc1cc(OC)cc(-c2ccc3c(NC(=O)c4ccc(N5C[C@@H](C)N[C@@H](C)C5)cc4)n[nH]c3c2)c1 [Example 29, N-(6-(3,5-dimethoxyphenyl)-1H-indazole-3-yl)-4-((3R, 5S)-3,5-dimethylpiperazine-1-yl)benzamide] | < 100 nM | < 100 nM |
| COc1cc(OC)c(Cl)c(-c2ccc3c(NC(=O)c4ccc(N5CCN(C(=O)C(C)(C)C)CC5)cc4)n[nH]c3c2)c1Cl [Example 30, N-(6-(2,6-dichloro-3,5-dimethoxyphenyl)-1H-indazole-3-yl)-4-(4-pivaloylpiperazine-1-yl)benzamide] | < 100 nM | < 100 nM |
| COc1cc(OC)c(Cl)c(-c2ccc3c(NC(=O)c4cnn(CCO)c4)n[nH]c3c2)c1Cl [Example 31, N-(6-(2,6-dichloro-3,5-dimethoxyphenyl)-1H-indazole-3-yl)-1-(2-hydroxyethyl)-1H-pyrazol-4-formamide] | < 100 nM | < 100 nM |
| COc1cc(OC)c(Cl)c(-c2ccc3c(NC(=O)c4ccc(CCC(=O)N(C)C)cc4)n[nH]c3c2)c1Cl [Example 33, N-(6-(2,6-dichloro-3,5-dimethoxyphenyl)-1H-indazole-3-yl)-4-(3-(dimethylamino)-3-oxopropyl)benzamide] | < 100 nM | < 100 nM |
| COc1cc(OC)c(Cl)c(-c2ccc3c(NC(=O)c4ccc(CN(C)C)cc4)n[nH]c3c2)c1Cl [Example 34, N-(6-(2,6-dichloro-3,5-dimethoxyphenyl)-1H-indazole-3-yl)-4-((dimethylamino)methyl)benzamide] | < 100 nM | < 100 nM |
| COc1cc(OC)c(Cl)c(-c2ccc3c(NC(=O)c4ccc(N(C)C)cc4)n[nH]c3c2)c1Cl [Example 35, N-(6-(2,6-dichloro-3,5-dimethoxyphenyl)-1H-indazole-3-yl)-4-(dimethylamino)benzamide] | < 100 nM | < 100 nM |
| COc1cc(OC)c(Cl)c(-c2ccc3c(NC(=O)c4ccc(N5CCN(C(C)=O)CC5)cc4)n[nH]c3c2)c1Cl [Example 36, 4-(4-acetylpiperazine-1-yl)-N-(6-(2,6-dichloro-3,5-dimethoxyphenyl)-1H-indazole-3-yl)benzamide] | < 100 nM | < 100 nM |
| COc1cc(OC)c(Cl)c(-c2ccc3c(NC(=O)c4ccc(N5CCC(N(C)C)CC5)cc4)n[nH]c3c2)c1Cl [Example 37, N-(6-(2,6-dichloro-3,5-dimethoxyphenyl)-1H-indazole-3-yl)-4-(4-(dimethylamino)piperidine-1-yl)benzamide] | < 100 nM | < 100 nM |

| SMILES | IC50 [1] | IC50 [2] |
| --- | --- | --- |
| COc1cc(OC)c(F)c(-c2ccc3c(NC(=O)c4ccc(N5CCN(C)CC5)cc4)n[nH]c3c2)c1F [Example 45, N-(6-(2,6-difluoro-3,5-dimethoxyphenyl)-1H-indazole-3-yl)-4-(4-methylpiperazine-1-yl)benzamide] | < 100 nM | < 100 nM |
| COc1cc(OC)c(F)c(-c2ccc3c(NC(=O)c4ccc(N5CCNC(C)(C)C5)cc4)n[nH]c3c2)c1F [Example 46, N-(6-(2,6-difluoro-3,5-dimethoxyphenyl)-1H-indazole-3-yl)-4-(3,3-dimethylpiperazine-1-yl)benzamide] | < 100 nM | < 100 nM |
| CCN1CCN(c2ccc(C(=O)Nc3n[nH]c4cc(-c5c(F)c(OC)cc(OC)c5F)ccc34)cc2)CC1 [Example 47, N-(6-(2,6-difluoro-3,5-dimethoxyphenyl)-1H-indazole-3-yl)-4-(4-ethylpiperazine-1-yl)benzamide] | < 100 nM | < 100 nM |
| COc1cc(OC)c(F)c(-c2ccc3c(NC(=O)c4ccc(N5CCN(C)CC5)cc4)n[nH]c3n2)c1F [Example 48, N-(6-(2,6-difluoro-3,5-dimethoxyphenyl)-1H-pyrazolo [3,4-b]pyridine-3-yl)-4-(4-methylpiperazine-1-yl)benzamide] | < 100 nM | < 100 nM |
| COc1cc(OC)c(F)c(-c2ccc3c(NC(=O)c4ccc(N5C[C@@H](C)N[C@@H](C)C5)cc4)n[nH]c3c2)c1 [Example 55] | < 100 nM | < 100 nM |
| COc1cc(OC)c(Cl)c(-c2ccc3c(NC(=O)c4ccc(N5C[C@@H](C)N[C@@H](C)C5)cc4)n[nH]c3n2)c1Cl [Example 64, N-(6-(2,6-dichloro-3,5-dimethoxyphenyl)-1H-pyrazolo [3,4-b]pyridin-3-yl)-4-((3S,5R)-3,5-dimethylpiperazine-1-yl)benzamide] | < 100 nM | < 100 nM |
| CCN1CCN(c2ccc(C(=O)Nc3n[nH]c4nc(-c5c(Cl)c(OC)cc(OC)c5Cl)ccc34)cc2)CC1 [Example 65, N-(6-(2,6-dichloro-3,5-dimethoxyphenyl)-1H-pyrazolo [3,4-b]pyridin-3-yl)-4-(4-ethylpiperazine-1-yl)benzamide] | < 100 nM | < 100 nM |
| COc1cc(OC)c(Cl)c(-c2ccc3c(NC(=O)c4ccc(N5C[C@@H](C)N[C@@H](C)C5)cc4)n[nH]c3n2)c1 [Example 66] | < 100 nM | < 100 nM |
| COCCN1CCN(c2ccc(C(=O)Nc3n[nH]c4nc(-c5c(Cl)c(OC)cc(OC)c5Cl)ccc34)cc2)CC1 [Example 67] | < 100 nM | < 100 nM |
| COc1cc(OC)cc(-c2ccc3c(NC(=O)c4ccc(N5C[C@@H](C)N[C@@H](C)C5)cc4)n[nH]c3n2)c1 [Example 68, N-(6-(3,5-dimethoxyphenyl)-1H-pyrazolo [3,4-b]pyridin-3-yl)-4-(((3R,5S)-3,5-dimethylpiperazine-1-yl))benzamide] | < 100 nM | < 100 nM |
| COc1cc(OC)c(Cl)c(-c2ccc3c(NC(=O)c4ccc(N5CCOCC5)cc4)n[nH]c3n2)c1Cl [Example 70, N-(6-(2,6-dichloro-3,5-dimethoxyphenyl)-1H-pyrazolo [3,4-b]pyridin-3-yl)-4-morpholino benzamide] | < 100 nM | < 100 nM |
| COc1cc(OC)c(Cl)c(-c2ccc3c(NC(=O)c4ccc(N5C[C@@H](C)N[C@@H](C)C5)nc4)n[nH]c3n2)c1Cl [Example 71] | < 100 nM | < 100 nM |
| COc1cc(OC)c(Cl)c(-c2ccc3c(NC(=O)c4ccc(N5CCNC(C)(C)C5)cc4)n[nH]c3n2)c1Cl [Example 72] | < 100 nM | < 100 nM |
| COc1cc(OC)c(Cl)c(-c2ccc3c(NC(=O)c4ccc(N5CC6(CNC6)C5)cc4)n[nH]c3n2)c1Cl [Example 73, N-(6-(2,6-dichloro-3,5-dimethoxyphenyl)-1H-pyrazolo [3,4-b]pyridin-3-yl)-4-(2,6-diazaspiro [3.3]heptane-2-yl)benzamide] | < 100 nM | < 100 nM |
| COc1cc(OC)c(Cl)c(-c2ncc3c(NC(=O)c4ccc(N5CCN(C)CC5)cc4)n[nH]c3n2)c1Cl [Example 83] | < 100 nM | < 100 nM |
| COc1cc(OC)c(Cl)c(-c2ccc3c(NC(=O)c4ccc(N5CCN(C)CC5)nc4)n[nH]c3n2)c1Cl [Example 85, N-(6-(2,6-dichloro-3,5-dimethoxyphenyl)-1H-pyrazolo [3,4-b]pyridin-3-yl)-6-(4-methylpiperazine-1-yl)nicotinamide] | < 100 nM | < 100 nM |
